Measured values taken from ChEMBL document CHEMBL4627336, “Inhibitory effects of biseokeaniamide A against lipopolysaccharide-induced signal transduction” (Bioorg Med Chem Lett, 2020).
Values belong to the compound of their own block, whether it stands above or below them. Calls of active or inactive are those of the source. No cut-off for these calls is given here. Where a SMILES comes first, the peptide text is derived from it. Bridges are numbered along the chain shown (N, C = ends). [ ]: non-standard residue; d: D form. The star is where a group is joined. NMeF = CN[C@@H](Cc1ccccc1)C(=O)O; NMeV = CN[C@H](C(=O)O)C(C)C; X2 = CC[C@H](C)CCCCC(=O)*; dDab = NCC[C@@H](N)C(=O)O; Dab = NCC[C@H](N)C(=O)O; Butyryl = CCCC(=O)*; X1 = CN(Cc1nccs1)*

Legend:
RAW264.7 [1] = test: Inhibition of LPS-induced NO production in mouse RAW264.7 cells preincubated for 1 hr followed by LPS stimulation and measured after 24 hrs by Griess reagent based assay; type: functional, cell-based
RAW264.7 [2] = test: Inhibition of LPS-induced iNOS expression in mouse RAW264.7 cells at preincubated for 1 hr followed by LPS stimulation and measured after 24 hrs by Western blot analysis; type: functional, cell-based
RAW264.7 [3] = test: Inhibition of LPS-induced IkappaBalpha degradation in mouse RAW264.7 cells at 1 to 30 uM incubated for 30 mins by Western blot analysis; type: functional, cell-based
RAW264.7 [4] = test: Cytotoxicity against mouse RAW264.7 cells assessed as reduction in cell viability upto 30 uM incubated for 24 hrs in presence of LPS by MTT assay; type: cell-based; conditions: raw264.7, 24 h
RAW264.7 [5] = test: Inhibition of LPS-induced TNFalpha production in mouse RAW264.7 cells at 1 to 30 uM preincubated for 1 hr followed by LPS stimulation and measured after 24 hrs by ELISA; type: functional, cell-based
RAW264.7 [6] = test: Inhibition of LPS-induced IL-6 production in mouse RAW264.7 cells at 1 to 30 uM preincubated for 1 hr followed by LPS stimulation and measured after 24 hrs by ELISA; type: functional, cell-based
RAW264.7 [7] = test: Inhibition of LPS-induced degraded IkappaBalpha regeneration in mouse RAW264.7 cells at 10 uM measured upto 90 mins by Western blot analysis; type: functional, cell-based
RAW264.7 [8] = test: Inhibition of LPS-induced IL-1beta production in mouse RAW264.7 cells preincubated for 1 hr followed by LPS stimulation and measured after 24 hrs by ELISA; type: functional, cell-based
RAW264.7 [9] = test: Inhibition of LPS-induced iNOS expression in mouse RAW264.7 cells at 1 uM preincubated for 1 hr followed by LPS stimulation and measured after 24 hrs by Western blot analysis relative to control; type: functional
RAW264.7 [10] = test: Inhibition of LPS-induced TNFalpha production in mouse RAW264.7 cells at 1 uM preincubated for 1 hr followed by LPS stimulation and measured after 24 hrs by ELISA; type: functional, cell-based
RAW264.7 [11] = test: Inhibition of LPS-induced NO production in mouse RAW264.7 cells at 0.1 to 10 uM preincubated for 1 hr followed by LPS stimulation and measured after 24 hrs by Griess reagent based assay; type: functional, cell-based
RAW264.7 [12] = test: Inhibition of LPS-induced IkappaBalpha degradation in mouse RAW264.7 cells at 1 uM incubated for 30 mins by Western blot analysis; type: functional, cell-based
RAW264.7 [13] = test: Inhibition of LPS-induced IL-1beta production in mouse RAW264.7 cells at 1 uM preincubated for 1 hr followed by LPS stimulation and measured after 24 hrs by ELISA; type: functional, cell-based
RAW264.7 [14] = test: Inhibition of LPS-induced IL-6 production in mouse RAW264.7 cells at 1 uM preincubated for 1 hr followed by LPS stimulation and measured after 24 hrs by ELISA; type: functional, cell-based

IC50 (RAW264.7 [1]): 6.47 µM
IC50 (RAW264.7 [8]): 14.5 µM
SMILES: CCCC(=O)N(C)[C@H](C(=O)N1CCC[C@H]1C(=O)N(C)[C@@H](Cc1ccccc1)C(=O)N[C@@H](CC(C)C)C(=O)N(C)[C@H](C(=O)N(C)Cc1nccs1)C(C)C)C(C)C (Butyryl-[NMeV]P[NMeF]L[NMeV]-X1)
inhibition (RAW264.7 [1]): Dose-dependent effect
inhibition (RAW264.7 [2]): Dose-dependent effect
inhibition (RAW264.7 [3]): inactive
Activity (RAW264.7 [4]): Non-Toxic
inhibition (RAW264.7 [5]): inactive
inhibition (RAW264.7 [6]): inactive
inhibition (RAW264.7 [7]): Active
inhibition (RAW264.7 [8]): Dose-dependent effect

SMILES: CC[C@H](C)CCCCC(=O)N[C@@H](CCN)C(=O)N[C@H](C(=O)N[C@@H](CCN)C(=O)N[C@H]1CCNC(=O)[C@H]([C@@H](C)O)NC(=O)[C@H](CCN)NC(=O)[C@H](CCN)NC(=O)[C@H](CC(C)C)NC(=O)[C@@H](Cc2ccccc2)NC(=O)[C@H](CCN)NC1=O)[C@@H](C)O (X2-[Dab]T[Dab][Dab][Dab][dF]L[Dab][Dab]T; lactam 4-C)
inhibition at 1 µM (RAW264.7 [9]): 100%

SMILES: CC[C@H](C)CCCCC(=O)N[C@@H](CCN)C(=O)N[C@H](C(=O)N[C@@H](CCN)C(=O)N[C@H]1CCNC(=O)[C@H]([C@@H](C)O)NC(=O)[C@H](CCN)NC(=O)[C@H](CCN)NC(=O)[C@H](CC(C)C)NC(=O)[C@@H](Cc2ccccc2)NC(=O)[C@@H](CCN)NC1=O)[C@@H](C)O (X2-[Dab]T[Dab][Dab][dDab][dF]L[Dab][Dab]T; lactam 4-C)
inhibition (RAW264.7 [10]): Active
inhibition (RAW264.7 [11]): Active
inhibition (RAW264.7 [12]): Active
inhibition (RAW264.7 [13]): Active
inhibition (RAW264.7 [14]): Active
